For one data set, the system named is RS4;11 cells. The experiment in a line: RS4;11 cell viability, CCK-8 assay. The class given is cell-based. The note with it: Homo sapiens, RS4-11, 96 h, CCK-8, 4 days, read-out: RS4, 11 IC50 (Bcl-2 dependent). The gist of the method:
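RS4;11 cells seeded at 10000 cells/well in medium with 10% FBS, cultured overnight, then exposed to serially diluted compound for 4 days at 37° C., 5% CO2. Viability by CCK-8 absorbance at 450 nm, normalized to vehicle; IC50 by nonlinear regression.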

The nature of the next data set: Pharmacokinetics in rats. It is filed as in vivo. As to the method:
The pharmacokinetics of ABT-199 and representative Compounds of the Disclosure were evaluated in rats at an IV dose of 2 mg/kg and an oral dose of 20 mg/kg.

A further data set concerns the target Mcl-1 (Homo sapiens (Human), UniProt Q07820). As to the kind of experiment: Fluorescence polarization competitive binding assay, Mcl-1. The following applies: FP competition, 20 nM Mcl-1, 2 nM Flu-BID probe; read-out: Inhibitory activity IC50 Mcl-1. In general terms: Fluorescence polarisation rises when a labelled molecule tumbles more slowly, as on binding a larger partner.

Data set [1] has as its system RS4;11 leukemia xenograft. The experiment in a line: RS4;11 leukemia xenograft model. It is filed as in vivo. The note with it: nude mice, oral gavage. As to the method:
The antitumor activity of Cpd. No. 6 (compound 6) was also studied in the RS4;11 leukemia xenograft model. Human RS4;11 tumor cells were injected into nude mice and treatment started on day 11 when the tumor size reached approximately 100 mm^3. Cpd. No. 6 was administered via oral gavage at indicated doses and schedules. Cpd.

Read-outs that look alike come from different tables or passages of the source. Where only a bound is given, the exact number is not on record here.

One may read the IC50 as the concentration that gives 50% inhibition. A word on the MRT inf: it is the average time that molecules of a dose stay in the body. One may read the Cmax as the highest concentration seen after dosing. The Tmax is the time at which the peak concentration occurs.

Mcl-1, sequence (Q07820 whole entry): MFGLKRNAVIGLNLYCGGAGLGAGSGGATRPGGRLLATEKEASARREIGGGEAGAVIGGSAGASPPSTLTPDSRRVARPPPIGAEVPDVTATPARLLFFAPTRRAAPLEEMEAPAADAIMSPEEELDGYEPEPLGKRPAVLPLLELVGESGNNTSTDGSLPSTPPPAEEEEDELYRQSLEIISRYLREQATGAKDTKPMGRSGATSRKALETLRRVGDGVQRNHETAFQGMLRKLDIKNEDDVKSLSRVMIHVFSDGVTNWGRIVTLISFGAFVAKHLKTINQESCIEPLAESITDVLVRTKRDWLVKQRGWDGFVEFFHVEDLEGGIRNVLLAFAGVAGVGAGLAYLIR
Description for Mcl-1: Fluorescence polarization values were measured using the Infinite M-1000 plate reader (Tecan U.S., Research Triangle Park, N.C.) in Microfluor 1 96-well, black, round-bottom plates (Thermo Scientific). […] Plates were mixed and incubated at room temperature for 1 hour with gentle shaking to assure equilibrium. […] Equilibrium dissociation constants (Kd) were then calculated by fitting the sigmoidal dose-dependent FP increases as a function of protein concentrations using Graphpad Prism 5.0 software (Graphpad Software, San Diego, Calif.).
Mixtures of 5 μl of the tested inhibitors in DMSO and 120 μl of pre-incubated protein/probe complexes in the assay buffer were added into assay plates and incubated at room temperature for 2 hours with gentle shaking. […] FP values were measured as described above. IC50 values were determined by nonlinear regression fitting of the competition curves.

`O=C(NS(=O)(=O)c1ccc(NC[C@H]2COCCO2)c([N+](=O)[O-])c1)c1ccc(N2CCN(CC3=C(c4ccc(Cl)cc4)CC4(CCC4)CC3)CC2)cc1Oc1cnc2[nH]ccc2c1` [Cpd. No. 6, (S)-N-((4-(((1,4-dioxan-2-yl)methyl)amino)-3-nitrophenyl)sulfonyl)-2-((1H-pyrrolo[2,3-b]pyridin-5-yl)oxy)-4-(4-((6-(4-chlorophenyl)spiro[3.5]non-6-en-7-yl)methyl)piperazin-1-yl)benzamide]: the values for the IC50 with RS4;11 cells and on Mcl-1 were 5.5 nM and greater than 5000 nM, respectively. Moreover, the “AUC0-∞ IV” value in “Pharmacokinetics in rats” (IV 2 mg/kg) is on record as 2915 n · gh/mL. For the same molecule, the “AUC0-∞ PO” value in the data set “Pharmacokinetics in rats” (oral 20 mg/kg) is given as 13475 n · gh/mL. In addition, the “F(AUC0-t)” value in the data set “Pharmacokinetics in rats” (oral 20 mg/kg vs IV 2 mg/kg) was found to be 46.2%. Further, the MRT inf in “Pharmacokinetics in rats” (rat, in vivo, IV 2 mg/kg) is 2.09 h. Also, the AUC(0-t) was 2900 ng·h/mL in the data set “Pharmacokinetics in rats” (rat, in vivo, IV 2 mg/kg, read-out: AUC0-t IV) and 13400 ng·h/mL in “Pharmacokinetics in rats” (rat, in vivo, oral 20 mg/kg, read-out: AUC0-t PO). Moreover, the clearance in “Pharmacokinetics in rats” (rat, in vivo, IV 2 mg/kg, read-out: CL (iv) (converted)) was 11.6 mL/min/kg. The Cmax in “Pharmacokinetics in rats” (rat, in vivo, IV 2 mg/kg, read-out: Cmax IV) was determined as 4170 ng/mL; in the data set “Pharmacokinetics in rats” (rat, in vivo, oral 20 mg/kg, read-out: Cmax PO), 2620 ng/mL. The Tmax stood at 0.083 h in the data set “Pharmacokinetics in rats” (rat, in vivo, IV 2 mg/kg, read-out: Tmax IV) and 2.67 h in “Pharmacokinetics in rats” (rat, in vivo, oral 20 mg/kg, read-out: Tmax PO). In addition, the Vd in the data set “Pharmacokinetics in rats” (rat, in vivo, IV 2 mg/kg, read-out: Vss (iv)) is 1.44 L/kg. The half-life was 4.39 h in “Pharmacokinetics in rats” (rat, in vivo, IV 2 mg/kg, read-out: t1/2 IV (converted)) and 3.12 h in the data set “Pharmacokinetics in rats” (rat, in vivo, oral 20 mg/kg, read-out: t1/2 PO (converted)). In data set [1] (FIG. 4), the mouse weight result is recorded as “does not cause weight loss in mice”. Further, the “antitumor activity (tumor growth)” value in data set [1] (treatment from day 11, FIG. 3) is on record as “inhibits tumor growth”.
